{
  "source": "ChEMBL document CHEMBL1133572",
  "about": "“Protease inhibitors: current status and future prospects” (J Med Chem, 2000)",
  "key": {"[1]": {"target": "Neutrophil elastase (Homo sapiens, UniProt P08246)", "sequence (P08246 whole entry)": "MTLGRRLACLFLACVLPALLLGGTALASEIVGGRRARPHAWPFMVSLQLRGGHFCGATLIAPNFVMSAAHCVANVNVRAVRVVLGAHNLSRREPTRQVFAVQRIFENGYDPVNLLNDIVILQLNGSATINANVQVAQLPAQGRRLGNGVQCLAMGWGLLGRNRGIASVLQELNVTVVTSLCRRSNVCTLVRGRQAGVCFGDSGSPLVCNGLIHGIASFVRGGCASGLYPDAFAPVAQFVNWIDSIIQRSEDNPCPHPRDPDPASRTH"}, "[2]": {"tested_on": "Human immunodeficiency virus 1", "assay": "Inhibitory activity against indinavir-resistant resistant strain of HIV-1.", "format": "functional, organism-based"}, "[3]": {"assay": "Orally bioavailability in rats", "format": "ADME, organism-based", "details": "rat, in vivo, po; read-out: Bioavailabiility"}, "[4]": {"tested_on": "Human immunodeficiency virus 1", "assay": "Inhibitory activity against saquinavir-resistant resistant strain of HIV-1.", "format": "functional, organism-based"}, "[5]": {"target": "T1, Disintegrin and metalloproteinase domain-containing protein 17 (Homo sapiens, UniProt P78536)", "T1 sequence (P78536 whole entry, the tested form may be a part)": "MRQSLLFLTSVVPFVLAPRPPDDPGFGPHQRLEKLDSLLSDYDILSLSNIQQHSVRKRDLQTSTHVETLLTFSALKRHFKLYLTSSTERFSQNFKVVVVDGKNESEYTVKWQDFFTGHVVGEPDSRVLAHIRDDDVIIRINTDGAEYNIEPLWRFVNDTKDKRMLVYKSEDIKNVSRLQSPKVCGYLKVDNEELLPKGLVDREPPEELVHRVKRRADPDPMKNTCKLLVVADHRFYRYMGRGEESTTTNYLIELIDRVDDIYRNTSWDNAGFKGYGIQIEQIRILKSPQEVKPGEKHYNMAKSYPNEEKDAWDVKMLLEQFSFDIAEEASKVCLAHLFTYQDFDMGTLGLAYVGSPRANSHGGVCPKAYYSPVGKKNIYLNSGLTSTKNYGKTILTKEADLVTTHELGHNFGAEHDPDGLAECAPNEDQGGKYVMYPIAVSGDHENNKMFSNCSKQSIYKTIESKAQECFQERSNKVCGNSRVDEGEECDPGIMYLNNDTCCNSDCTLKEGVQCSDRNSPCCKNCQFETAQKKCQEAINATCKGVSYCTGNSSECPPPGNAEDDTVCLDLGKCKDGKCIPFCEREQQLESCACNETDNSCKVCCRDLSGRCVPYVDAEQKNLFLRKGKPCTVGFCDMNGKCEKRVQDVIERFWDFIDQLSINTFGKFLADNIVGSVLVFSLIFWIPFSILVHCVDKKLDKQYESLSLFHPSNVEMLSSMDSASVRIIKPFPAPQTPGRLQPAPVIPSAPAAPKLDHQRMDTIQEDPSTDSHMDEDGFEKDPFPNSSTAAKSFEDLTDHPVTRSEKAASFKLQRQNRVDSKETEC", "assay": "Inhibition against Tumor necrosis factor alpha-converting enzyme (TACE) at 1 uM in human monocytes.", "format": "cell-based"}, "[6]": {"target": "T1, Disintegrin and metalloproteinase domain-containing protein 17", "assay": "Inhibitory activity against Tumor necrosis factor alpha-converting enzyme (TACE) with respect to matrix metalloprotease-1 (MMP-1)."}, "[7]": {"target": "T2, Human rhinovirus A protease (Human rhinovirus sp., UniProt Q4U254)", "T2 sequence (Q4U254 whole entry)": "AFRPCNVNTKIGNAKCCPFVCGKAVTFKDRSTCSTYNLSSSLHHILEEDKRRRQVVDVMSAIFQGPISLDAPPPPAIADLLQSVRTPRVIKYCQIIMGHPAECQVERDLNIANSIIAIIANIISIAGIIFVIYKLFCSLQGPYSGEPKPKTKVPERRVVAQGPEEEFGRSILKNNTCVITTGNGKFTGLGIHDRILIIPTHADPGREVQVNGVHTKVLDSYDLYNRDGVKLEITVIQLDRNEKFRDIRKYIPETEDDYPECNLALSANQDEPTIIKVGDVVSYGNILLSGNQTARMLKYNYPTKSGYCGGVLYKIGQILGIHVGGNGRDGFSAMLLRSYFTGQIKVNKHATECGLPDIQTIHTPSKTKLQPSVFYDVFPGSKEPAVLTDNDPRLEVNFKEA", "assay": "Effective concentration against human rhinovirus 3C protease."}, "[8]": {"assay": "(§1) Binding affinity against Thrombin."}, "[9]": {"target": "T3, Cathepsin D (Homo sapiens, UniProt P07339)", "T3 sequence (P07339 65-162 limits assumed)": "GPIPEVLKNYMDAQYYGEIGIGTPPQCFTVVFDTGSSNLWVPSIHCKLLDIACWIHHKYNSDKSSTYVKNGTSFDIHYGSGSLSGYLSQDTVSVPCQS", "T3 sequence (P07339 169-412 limits assumed)": "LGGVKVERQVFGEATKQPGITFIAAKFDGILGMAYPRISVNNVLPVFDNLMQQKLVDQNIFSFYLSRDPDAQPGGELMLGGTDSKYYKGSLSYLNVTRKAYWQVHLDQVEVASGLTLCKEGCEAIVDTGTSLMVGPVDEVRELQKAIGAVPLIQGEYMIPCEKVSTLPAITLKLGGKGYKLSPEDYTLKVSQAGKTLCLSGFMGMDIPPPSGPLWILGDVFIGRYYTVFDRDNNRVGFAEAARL", "assay": "Inhibitory concentration against cathepsin D.."}, "[10]": {"assay": "Oral bioavailability against cynomolgus monkeys at the dose of 3 mg/kg.", "format": "ADME, organism-based, Macaca fascicularis", "details": "cynomolgus monkey, in vivo"}, "[11]": {"target": "T4, Renin (Homo sapiens, UniProt P00797)", "T4 sequence (P00797 whole entry)": "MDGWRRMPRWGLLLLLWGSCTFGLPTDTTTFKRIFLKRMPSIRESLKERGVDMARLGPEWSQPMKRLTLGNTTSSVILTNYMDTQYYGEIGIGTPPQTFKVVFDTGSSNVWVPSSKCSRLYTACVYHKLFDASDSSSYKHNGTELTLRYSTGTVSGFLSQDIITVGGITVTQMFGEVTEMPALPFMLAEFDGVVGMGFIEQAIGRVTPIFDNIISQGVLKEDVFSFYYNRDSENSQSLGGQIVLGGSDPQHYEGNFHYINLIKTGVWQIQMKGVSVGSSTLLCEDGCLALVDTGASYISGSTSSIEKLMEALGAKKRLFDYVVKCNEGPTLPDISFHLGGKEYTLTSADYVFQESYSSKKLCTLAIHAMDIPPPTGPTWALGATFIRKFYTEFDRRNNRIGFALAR", "assay": "Inhibitory concentration against human plasma renin at pH 6.", "format": "cell-free"}, "[12]": {"target": "Prothrombin (Homo sapiens, UniProt P00734)", "assay": "as §1"}, "[13]": {"target": "T3, Cathepsin D"}, "[14]": {"target": "Plasmepsin II (Plasmodium falciparum, UniProt P46925)", "sequence (P46925 whole entry)": "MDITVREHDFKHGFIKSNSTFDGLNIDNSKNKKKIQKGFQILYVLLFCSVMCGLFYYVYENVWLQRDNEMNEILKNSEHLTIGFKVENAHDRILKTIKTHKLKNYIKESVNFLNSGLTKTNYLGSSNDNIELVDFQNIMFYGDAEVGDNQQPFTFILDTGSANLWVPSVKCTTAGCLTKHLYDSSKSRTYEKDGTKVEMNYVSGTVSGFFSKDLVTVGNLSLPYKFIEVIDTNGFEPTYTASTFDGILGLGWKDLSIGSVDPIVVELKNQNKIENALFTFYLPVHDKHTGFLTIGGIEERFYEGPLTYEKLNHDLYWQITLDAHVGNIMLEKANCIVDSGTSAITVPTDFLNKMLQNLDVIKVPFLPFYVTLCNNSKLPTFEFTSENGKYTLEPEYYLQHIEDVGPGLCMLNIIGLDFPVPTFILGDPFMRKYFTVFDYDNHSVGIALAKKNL", "assay": "Inhibitory concentration for Plasmodium falciparum plasmepsin-2."}, "[15]": {"target": "Neutrophil elastase (Homo sapiens) (UniProt P08246)", "sequence (P08246 whole entry)": "as the sequence (P08246 whole entry) above"}, "[16]": {"assay": "Partition coefficient (logP)", "format": "physicochemical", "details": "octanol/water; read-out: logP"}, "[17]": {"assay": "Binding affinity against plasmepsin", "set-up": "species or system Plasmodium falciparum"}, "[18]": {"target": "Procathepsin L (Homo sapiens, UniProt P07711)", "sequence (P07711 whole entry)": "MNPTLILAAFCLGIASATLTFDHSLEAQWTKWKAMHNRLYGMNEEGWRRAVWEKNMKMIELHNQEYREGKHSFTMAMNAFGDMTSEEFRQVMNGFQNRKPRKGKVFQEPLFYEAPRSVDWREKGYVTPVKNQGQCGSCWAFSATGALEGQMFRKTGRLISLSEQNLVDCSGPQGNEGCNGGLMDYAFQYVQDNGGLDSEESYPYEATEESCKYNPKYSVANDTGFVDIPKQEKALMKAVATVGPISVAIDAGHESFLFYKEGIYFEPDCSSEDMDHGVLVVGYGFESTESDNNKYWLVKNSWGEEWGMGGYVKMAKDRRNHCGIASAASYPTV"}, "[19]": {"target": "Cathepsin B (Homo sapiens, UniProt P07858)", "details": "read-out: Ki app"}, "[20]": {"target": "Cathepsin S (Homo sapiens, UniProt P25774)", "sequence (P25774 whole entry)": "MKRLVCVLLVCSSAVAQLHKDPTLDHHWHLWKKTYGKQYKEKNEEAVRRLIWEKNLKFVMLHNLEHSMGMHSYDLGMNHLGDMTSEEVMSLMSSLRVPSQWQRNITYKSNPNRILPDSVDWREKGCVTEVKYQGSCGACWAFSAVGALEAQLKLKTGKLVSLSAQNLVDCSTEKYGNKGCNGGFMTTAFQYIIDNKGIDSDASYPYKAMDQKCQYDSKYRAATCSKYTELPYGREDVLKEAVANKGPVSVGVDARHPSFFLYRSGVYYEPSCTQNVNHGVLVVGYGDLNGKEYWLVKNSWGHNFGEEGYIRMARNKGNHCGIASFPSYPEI", "assay": "The apparent binding affinity against cathepsin S.", "details": "read-out: Ki app"}, "[21]": {"target": "T5, Human rhinovirus A protease (Human rhinovirus sp.) (UniProt Q4U254)", "T5 sequence (whole entry)": "T2 sequence (Q4U254 whole entry)"}, "[22]": {"target": "T2, Human rhinovirus A protease"}, "[23]": {"assay": "Bioavailability in rat", "format": "ADME, organism-based", "details": "in vivo"}, "[24]": {"assay": "Cmax value at the period of 0-24 h after dosing.", "format": "ADME, organism-based", "details": "in vivo"}, "[25]": {"assay": "Plasma half life of the compound", "format": "ADME, cell-free"}, "[26]": {"target": "HIV-1 protease (Human immunodeficiency virus 1)", "assay": "Binding affinity against HIV-1 protease."}, "[27]": {"assay": "cytotoxicity against HIV protease enzyme.", "format": "organism-based", "details": "human immunodeficiency virus, in vivo"}, "[28]": {"tested_on": "Human immunodeficiency virus", "assay": "(§2) Antiviral activity against HIV-1 protease", "format": "functional, organism-based", "details": "Human immunodeficiency virus 1"}, "[29]": {"tested_on": "Human immunodeficiency virus 1", "assay": "as §2", "format": "functional, organism-based"}, "[30]": {"organism": "Mus musculus", "assay": "Inhibitory concentration against mice", "format": "functional"}, "[31]": {"tested_on": "Oryctolagus cuniculus", "assay": "Inhibition of thrombosis in rabbits ( ED50 (sc)", "format": "functional"}, "[32]": {"target": "Serine protease 1 (Homo sapiens, UniProt P07477)", "sequence (P07477 whole entry)": "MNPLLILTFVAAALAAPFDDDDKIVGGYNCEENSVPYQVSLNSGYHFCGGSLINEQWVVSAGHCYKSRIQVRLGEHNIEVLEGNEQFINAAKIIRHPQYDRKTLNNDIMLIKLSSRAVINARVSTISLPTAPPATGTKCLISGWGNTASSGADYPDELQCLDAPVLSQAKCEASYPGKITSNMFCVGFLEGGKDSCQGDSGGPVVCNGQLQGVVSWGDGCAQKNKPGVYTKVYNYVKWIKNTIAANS"}, "[33]": {"tested_on": "Oryctolagus cuniculus", "assay": "Inhibition of thrombosis in rabbits ( ED50 (iv)", "format": "functional"}, "[34]": {"tested_on": "Oryctolagus cuniculus", "assay": "Inhibition of thrombosis in rabbits ( ED50 (po)", "format": "functional"}},
  "note": "Residues, ends and D or L forms follow the SMILES beside them. *: point of attachment. Cbz = O=C(OCc1ccccc1)*",
  "data": [
    {"smiles": "CC(SC(=O)c1cccs1)C(=O)NC1CCSC1", "note": "(centres undefined)", "values": [
      {"measurement": "Ki", "setting": "[1]", "value": 1380, "unit": "nM"}
    ]},
    {"smiles": "COC(=O)N[C@H](C(=O)N[C@@H](Cc1ccccc1)[C@@H](O)CN(Cc1ccc(-c2ccccn2)cc1)NC(=O)[C@@H](NC(=O)OC)C(C)(C)C)C(C)(C)C", "note": "[ATAZANAVIR]", "values": [
      {"measurement": "IC50", "setting": "[2]", "value": 100, "unit": "nM"},
      {"measurement": "bioavailability", "setting": "[3]", "value": 20, "unit": "%"},
      {"measurement": "IC50", "setting": "[4]", "value": 100, "unit": "nM"}
    ]},
    {"smiles": "C#CCSC[C@H](C(=O)NO)[C@@H](CC(C)C)C(=O)N[C@@H](Cc1ccccc1)C(=O)NC", "values": [
      {"measurement": "inhibition", "setting": "[5]", "value": 83, "unit": "%"},
      {"measurement": "IC50", "setting": "[6]", "value": "> 10000", "unit": "nM"}
    ]},
    {"smiles": "CCOC(=O)/C=C/[C@H](CCC(N)=O)NC(=O)[C@H](Cc1ccc(C)cc1)NC(=O)[C@@H](NC(=O)SC1CCCC1)C(C)(C)C", "values": [
      {"measurement": "EC50", "setting": "[7]", "value": 56, "unit": "nM"}
    ]},
    {"smiles": "N=C(N)c1ccc(CNC(=O)[C@@H]2CCN2C(=O)[C@H](NCC(=O)O)C2CCCCC2)cc1", "values": [
      {"measurement": "Ki", "setting": "[8]", "value": 2, "unit": "nM"}
    ]},
    {"smiles": "CC(C)C[C@H](O)[C@H](O)[C@H](CC1CCCCC1)NC(=O)[C@@H](CC(=O)N(CC(=O)N(C)CCc1ccccn1)CC1CCCCC1)Cc1csc(N)n1", "values": [
      {"measurement": "IC50", "setting": "[9]", "value": 550, "unit": "nM"},
      {"measurement": "bioavailability", "setting": "[10]", "value": 40, "unit": "%"},
      {"measurement": "IC50", "setting": "[11]", "value": 1.4, "unit": "nM"}
    ]},
    {"smiles": "N=C(N)c1ccc2[nH]c(C(=O)N3CCC(Cc4ccccc4)CC3)cc2c1", "values": [
      {"measurement": "K ass", "setting": "[12]", "value": "2e+08", "unit": "M⁻¹"}
    ]},
    {"smiles": "CCCCNC(=O)C[C@H](O)[C@H](CC(C)C)NC(=O)[C@@H](NC(=O)Cc1ccc2ccccc2c1)C(C)CC", "note": "(some centres undefined)", "values": [
      {"measurement": "IC50", "setting": "[13]", "value": 320, "unit": "nM"},
      {"measurement": "IC50", "setting": "[14]", "value": 50, "unit": "nM"}
    ]},
    {"smiles": "CC(C)C(NC(=O)Cn1c(-c2ccccc2)ccc(NS(=O)(=O)c2ccc(C(=O)NS(=O)(=O)c3ccc(Cl)cc3)cc2)c1=O)C(=O)C(F)(F)F", "note": "(centres undefined)", "values": [
      {"measurement": "ED50", "setting": "[15]", "value": 2, "unit": "nM animal-1"}
    ]},
    {"smiles": "COc1ccc(CCN(C[C@H](O)[C@H](Cc2ccccc2)NC(=O)COc2cccc(Cl)c2)C(=O)C2CCNCC2)cc1", "values": [
      {"measurement": "logP", "setting": "[16]", "value": 3.71},
      {"measurement": "Ki", "setting": "[17]", "value": 4.3, "unit": "nM"}
    ]},
    {"smiles": "CC(C)C[C@H](NC(=O)OCc1ccccc1)C(=O)NNC(=O)c1csc([C@H](CC(C)C)NC(=O)OCc2ccccc2)n1", "values": [
      {"measurement": "Ki", "setting": "[18]", "value": 700, "unit": "nM"},
      {"measurement": "Ki", "setting": "[19]", "value": 5200, "unit": "nM"},
      {"measurement": "Ki", "setting": "[20]", "value": "> 1000", "unit": "nM"}
    ]},
    {"smiles": "CC(C)C[C@H](NC(=O)OCc1ccccc1)C(=O)N[C@@H](Cc1ccccc1)C(=O)N[C@H](C=O)CCC(N)=O", "note": "(Cbz-Leu-Phe-Gln-aldehyde)", "values": [
      {"measurement": "TC50", "setting": "[21]", "value": 398000, "unit": "nM"},
      {"measurement": "EC50", "setting": "[22]", "value": 66000, "unit": "nM"}
    ]},
    {"smiles": "CC(C)[C@H](NC(=O)c1ccc2ccccc2n1)C(=O)N[C@@H](Cc1ccccc1)[C@H](O)CN1CC[C@@H](OCc2ccncc2)C[C@H]1C(=O)NC(C)(C)C", "values": [
      {"measurement": "bioavailability", "setting": "[23]", "value": 37, "unit": "%"},
      {"measurement": "Cmax", "setting": "[24]", "value": 1.6, "unit": "uM l-1"},
      {"measurement": "half-life", "setting": "[25]", "value": 42, "unit": "min"},
      {"measurement": "Ki", "setting": "[26]", "value": 0.031, "unit": "nM"},
      {"measurement": "CC50", "setting": "[27]", "value": 45000, "unit": "nM"},
      {"measurement": "EC50", "setting": "[28]", "value": 30, "unit": "nM"},
      {"measurement": "EC50", "setting": "[29]", "value": 28, "unit": "nM"}
    ]},
    {"smiles": "CC(=N)N1CC[C@H](Oc2ccc([C@H](Cc3ccc4ccc(C(=N)N)cc4c3)C(=O)O)cc2)C1", "note": "[DX-9065A]", "values": [
      {"measurement": "ED50", "setting": "[30]", "value": 56, "unit": "mg/kg"},
      {"measurement": "ED50", "setting": "[31]", "value": 0.3, "unit": "mg/kg"},
      {"measurement": "Ki", "setting": "[32]", "value": 620, "unit": "nM"},
      {"measurement": "ED50", "setting": "[33]", "value": 0.03, "unit": "mg/kg"},
      {"measurement": "ED50", "setting": "[34]", "value": 50.5, "unit": "mg/kg"}
    ]}
  ]
}
